The text below walks through data of ChEMBL document CHEMBL5352394, “Development of fluorizoline analogues as prohibitin ligands that modulate C-RAF signaling, p21 expression and melanogenesis” (Eur J Med Chem, 2022).

The target of experiment [1] is RAF proto-oncogene serine/threonine-protein kinase (Homo sapiens) (UniProt P04049). Nature of the experiment: Inhibition of C-RAF phosphorylation at Ser 338 residue in human HeLa cells at 10 uM preincubated with compound for 1 hr and followed by EGF stimulation for 30 mins by Western blot analysis. The class given is cell-based.
Experiment [2] has as its target Dual specificity mitogen-activated protein kinase kinase 1 (Homo sapiens) (UniProt Q02750). Nature of the experiment: Inhibition of MEK1 phosphorylation in human HeLa cells at 10 uM preincubated for 1 hr and followed by EGF stimulation for 30 mins by Western blot analysis. The class given is cell-based.
The subject of another experiment is HeLa. As to the kind of experiment: Cytotoxicity against human HeLa cells assessed as reduction in cell viability measured after 24 hrs by MTT assay. The following applies: dose 1.25-10 µM. The format is functional, cell-based.
Another experiment has as its system HBL. As to the kind of experiment: Induction of pigmentation in human HBL cells assessed as melanogenesis at 0.1 to 10 uM by microscopic analysis. The class given is functional, cell-based. The following applies: dose 0.1-10 µM.
For experiment [3], the system named is MCF7. Nature of the experiment: Antiproliferative activity against human MCF7 cells assessed as reduction in cell viability at 1 uM incubated for 72 hrs by trypan blue exclusion assay. The class given is functional, cell-based.
In experiment [4] the test system is MCF7. Nature of the experiment: Upregulation of p21 expression in human MCF7 cells at 1 uM incubated for 72 hrs by Western blot analysis. The format is functional, cell-based.
For experiment [5], the system named is MCF7. As to the kind of experiment: Antiproliferative activity against human MCF7 cells transfected with p21 siRNA assessed as reduction in cell viability at 1 uM incubated for 48 hrs by tryphan blue dye exclusion analysis. The class given is functional, cell-based.

SMILES strings stand for the structures. Activity calls are given as the source filed them. The calls are words filed in the database; no cut-off is given here.

RAF proto-oncogene serine/threonine-protein kinase (Homo sapiens), sequence (P04049 whole entry): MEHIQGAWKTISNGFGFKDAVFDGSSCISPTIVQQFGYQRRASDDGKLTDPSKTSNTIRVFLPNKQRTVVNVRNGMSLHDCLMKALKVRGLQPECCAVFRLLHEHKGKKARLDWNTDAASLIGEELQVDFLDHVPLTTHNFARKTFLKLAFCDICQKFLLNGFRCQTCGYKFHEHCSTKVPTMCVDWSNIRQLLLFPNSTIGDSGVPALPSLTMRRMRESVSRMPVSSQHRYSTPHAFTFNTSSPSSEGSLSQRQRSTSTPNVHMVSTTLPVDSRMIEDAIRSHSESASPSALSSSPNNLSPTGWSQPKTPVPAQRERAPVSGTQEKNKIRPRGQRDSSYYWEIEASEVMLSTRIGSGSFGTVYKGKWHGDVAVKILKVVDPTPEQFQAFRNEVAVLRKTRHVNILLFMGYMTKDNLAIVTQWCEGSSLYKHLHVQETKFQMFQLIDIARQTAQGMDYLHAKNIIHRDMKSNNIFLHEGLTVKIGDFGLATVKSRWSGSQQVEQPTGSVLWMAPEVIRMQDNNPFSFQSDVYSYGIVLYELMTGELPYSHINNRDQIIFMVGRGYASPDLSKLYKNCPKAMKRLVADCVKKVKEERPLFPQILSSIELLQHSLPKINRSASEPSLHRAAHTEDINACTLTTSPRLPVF
Dual specificity mitogen-activated protein kinase kinase 1 (Homo sapiens), sequence (Q02750 whole entry): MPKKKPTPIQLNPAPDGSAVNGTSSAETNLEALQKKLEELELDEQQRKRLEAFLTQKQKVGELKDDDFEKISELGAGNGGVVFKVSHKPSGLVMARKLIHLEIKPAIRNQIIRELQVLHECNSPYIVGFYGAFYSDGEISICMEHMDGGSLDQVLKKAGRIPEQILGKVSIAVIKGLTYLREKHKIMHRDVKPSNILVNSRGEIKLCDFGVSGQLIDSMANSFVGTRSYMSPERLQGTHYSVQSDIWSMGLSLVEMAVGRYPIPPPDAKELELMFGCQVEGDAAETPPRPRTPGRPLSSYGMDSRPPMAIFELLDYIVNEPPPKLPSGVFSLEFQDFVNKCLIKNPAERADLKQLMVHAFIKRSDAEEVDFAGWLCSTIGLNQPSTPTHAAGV

In the case of `FC1(F)N=C(c2ccc(Cl)cn2)SC1(F)c1ccc(Cl)cc1` (stereo not drawn), the inhibition entry in experiment [1] is “Active”. For the same molecule, the inhibition entry in experiment [2] was “inactive”. Besides, the Activity result in the experiment on HeLa is “Dose-Dependent Effect”. Also, the result in the experiment on HBL was Active.

As to `O=C(c1ccccc1)c1ccc(C2=NC(F)(F)C(F)(c3ccc(Cl)cc3)S2)cc1` (stereo not drawn), the inhibition result in experiment [1] is “Active”. For the same molecule, the result in the experiment on HBL was Active.

With `CC1(F)N=C(c2ccc(Cl)cc2)SC1(F)c1ccc(Cl)cc1` (stereo not drawn), the inhibition result in experiment [1] is “inactive”. Further, the inhibition result in experiment [2] was “Active”.

As for `FC1(F)N=C(c2ccc(Br)cc2)SC1(F)c1ccc(Cl)cc1` (stereo not drawn), in experiment [1], the inhibition result was “Active”. Also, the result with MCF7 [3], in the experiment on HBL and in the experiment on MCF7 [4] was Active. Further, the Activity result in the experiment on HeLa is “Dose-Dependent Effect”.

Consider `FC1(F)N=C(c2ccc(Cl)cc2)SC1(F)c1ccc(Cl)cc1` (stereo not drawn), for which, in the experiment with HeLa, the Activity entry is “Dose-Dependent Effect”. The outcome in the experiment on HBL was Active.

Turning to `FC1(F)SC(c2ccc(Cl)cc2)=NC1(F)c1ccc(Cl)cc1` (stereo not drawn), the inhibition result in experiment [1] and in experiment [2] was “inactive” in each case. In addition, the result in the experiment on MCF7 [3] and with MCF7 [4] was inactive. Moreover, the result in the experiment with HBL was Active.

With `FC1(F)N=C(c2ccccn2)SC1(F)c1ccc(Cl)cc1` (stereo not drawn), the inhibition entry in experiment [1] and in experiment [2] was “Active” throughout. In addition, the result with HBL was Active.

For `Cc1ccc(C2(F)SC(c3ccccc3)=NC2(F)F)cc1` (stereo not drawn), the inhibition result in experiment [1] and in experiment [2] was “inactive” in each case. In addition, the outcome in the experiment with MCF7 [5] was inactive. For the same molecule, the Activity entry in the experiment on HeLa was “Dose-Dependent Effect”. In the experiment on HBL, the outcome was Active.

For `FC1(F)N=C(c2cnccn2)SC1(F)c1ccc(Cl)cc1` (stereo not drawn), the inhibition result in experiment [1] and in experiment [2] was “inactive” each time. Further, the outcome in the experiment with MCF7 [3], in the experiment with HBL and in the experiment with MCF7 [4] was Active. Also, in the experiment with MCF7 [5], the result was inactive.

On to `FC1(F)N=C(c2ncccn2)SC1(F)c1ccc(Cl)cc1` (stereo not drawn), for which the inhibition entry in experiment [1] and in experiment [2] was “Active” throughout. Besides, the result with HBL was Active.

Take `FC1(F)N=C(c2ccccn2)SC1(F)c1ccccc1` (stereo not drawn): the inhibition result in experiment [1] is “Active”. Further, the outcome in the experiment with HBL was Active.

`Cc1ccc(C2(F)SC(c3ccc(Cl)cc3)=NC2(F)F)cc1` (stereo not drawn): the inhibition result in experiment [1] and in experiment [2] was “Active” throughout. For the same molecule, the Activity entry with HeLa is “Dose-Dependent Effect”. The outcome in the experiment on HBL was Active.
